Like-named read-outs stand apart in the source and are kept apart here.
Assays:
Assay type in all cases: cell-based
human GPR40 (hGPR40) [1] = biological target: T1, human GPR40 (hGPR40) (Homo sapiens, UniProt O14842); assay: ERK assay, screening for GPR40 ligands in cell line TXGPR40; settings: ligand 10 μM, TXGPR40 cells, class relative to LA
T1 construct: expressed in transfected cells; doxycycline-inducible expression vector
Protocol: This Test 1 was carried out by using the following materials and methods.
(1) In this test, the cell lines TXGPR40 and TXGPR120 were plated in 35-mm dishes in 5×10^5 cells/per dish.
Each ligand was dissolved in DMSO, diluted tenfold with the medium to make the total amount of 100 μl. DMSO was used as the negative control, and PMA (phorbol-12-myristate-13-acetate) was used as the positive control.
(3) The medium was removed from the dish of the cell to reduce the total amount of liquid to 0.9 ml.
(4) The ligand solution was added dropwise to the cell solution, and dispersed by gently shaking the dish, and allowed to react at room temperature.
(5) After 5 minutes of reaction, the medium was discarded, and the remaining medium on the dish was removed on ice using an aspirator.
(6) 150 μl of Lysis buffer (50 mM HEPES (pH 7.0), 150 mM NaCl, 10% glycerol, 1% NonidetP-40, 2 mM MgCl2, 1 mM EDTA, 100 mM NaF, 10 mM sodium phosphate, 1 mM Na3VO4, 20 mM β-glycerophosphate, and Proteinase inhibitor) were added, then the cells were collected using a cell scraper.
(1) The crude enzyme solution mixed with SDS Sample Buffer was subjected to ultrasonication with a sonifier, then incubated at 90° C. for five minutes.
(2) The mixture was vortexed and centrifuged at 15,000 rpm for five minutes at 4° C.
(3) The supernatant of the centrifuged sample was applied to two 7.5% acrylamide gel slabs placed in an electrophoresis tank filled with 1×SDS-PAGE Running Buffer (25 mM Tris, 0.2 M Glycin, and 1% SDS). Electrophoresis was carried out under a constant current of 40 mA for about 80 to 90 minutes.
(1) A PVDF membrane cut in the same size as the gel slab was immersed in methanol for about 15 seconds and then shaken in Transfer Buffer C solution (25 mM Tris, 0.02% SDS, 2% methanol and 40 mM 6-aminohexanoic acid) at room temperature to swell for 15 minutes. Filter paper for blotting was cut into a 10-cm square.
(2) On the blotting apparatus were placed sequentially two pieces of filter paper immersed in A solution (0.3 M Tris, 0.02% SDS and 2% methanol), two pieces of filter paper immersed in B solution (25 mM Tris, 0.02% SDS and 2% methanol), and the membrane thereon. The gel slab after electrophoresis, and finally two pieces of filter paper immersed in C solution was placed thereon, and the apparatus was closed.
(3) The protein was transferred to the membrane at 15 V for 30 minutes.
(1) The following procedure was all carried out at room temperature. After the protein transfer, the membrane was placed into a vial containing 1×TTBS (0.2 M Tris, 1.5 M NaCl, 0.2% Tween 20) and washed for 15 minutes.
(2) TTBS was discarded, and about 10 ml of Block Ace was added and blocked on a shaker for one hour.
(1) The primary antibodies (p44/42 MAP Kinase Antibody and Phospho-p44/42 MAP Kinase Antibody) were each diluted 1000-fold with TTBS.
(2) After blocking, the Block Ace solution was removed, the solution of the primary antibody was added and allowed to react on the shaker for two hours.
(1) The secondary antibody (Anti-rabbit Ig, Horseradish Peroxidase linked F(ab′)2 fragments) was diluted 5000-fold with TTBS.
(2) The primary antibody solution was removed and the membrane was washed three times on the shaker in TTBS for five to ten minutes each.
(3) TTBS was removed and the solution of secondary antibody was added and left for 1 hour on the shaker.
(1) 2 ml each of Detection Reagent 1 and Detection Reagent 2 from ECL kit were mixed together on ice.
(2) The solution of secondary antibody was removed from the membrane reacted with the secondary antibody and then washed three times on the shaker in TTBS for five minutes each.
(3) The liquid was thoroughly removed from the membrane, which was then placed in a plastic bag, and 2 ml of the Detection Reagent mixture was added per each membrane.
(4) The membrane was kept in contact with a film in the cassette for one to five minutes, and the film was developed using an automatic developing machine.

human GPR40 (hGPR40) [2] = biological target: T1, human GPR40 (hGPR40); assay: Determination of intracellular Ca2+ concentration (FLIPR), cell line TXGPR40; settings: for agonistic activity for GPR40 (in words): cells in which GPR40 has been transgenically expressed; for [Ca^2+]/GPR40 10 μM (ratio vs. LA): relative fluorescence intensity vs LA at 10 μM
Protocol: (§1) (1) In this test, The cell lines TXGPR40, TXGPR120 and GPR120/Flp-in were plated onto a collagen-coated black 96-well plate in 2×10^5 cells/well. The 96-well plates containing the cells were centrifuged and treated with Doxycycline (final concentration 10 μg/mL), incubated in a CO2 incubator for 21 hours, then used for assay.
(§2) (2) The ligand used in this test includes NCP04, NCP14, NCG20, NCG21, NCG22, NCG23, NCP02, NCP03, NCP05, NCP06, NCG14, NCG17, NCG19, NCG28, NCG29, NCG30, NCG31, NCG34, NCG35, NCG37, NCG38, NCG44, NCG45, NCG46, and NCG54. Each ligand was dissolved in DMSO and adjusted to the concentration of 10 mM, then diluted with Hanks' Balanced Salt Solution (pH 7.4) containing 20 mM HEPES (referred to as FLIPR buffer hereinafter) to the final concentration of 1 to 100 μM. 1% DMSO was used as the negative control, and LA was used as the positive control.
(§3) The ligands and controls were placed in different 96-well plates from the plates for the cells.
(§4) (3) The 96-well plate containing the cells was removed from the CO2 incubator. A fluorescent dye prepared in a twofold higher concentration (Ca Assay Kit Component A diluted with FLIPR Buffer) was added in 50 μL/well, then allowed to stand in the dark at room temperature for one hour.
(§5) (4) After one hour, the 96-well plate containing the cells and the 96-well plate in which ligands and controls were prepared were set on FLIPR (Fluorometric Imaging Plate Reader) for determination.
(§6) (5) Fluorometry using FLIPR was carried out at a laser output of 1.0 W for five minutes. […] after the start of the determination, the ligand (25 μL) was added dropwise to the cell plate at a rate of 50 μL/sec. The intensity of fluorescence was automatically digitized by the application program installed in the FLIPR from the image taken by the CCD camera (with exposure time of 0.40 sec). The interval of data sampling was one second for the initial one minute after the start of operation, and six seconds for the subsequent four minutes.
(§7) (6) The maximum fluorescence intensity was obtained from the data showing the change in the fluorescence intensity over time observed in each well. The maximum fluorescence intensity was plotted against ligand concentration, and pEC50 was calculated. The ratio of the fluorescence intensity for each ligand to LA at 10 μM was calculated as the relative intensity of each ligand.

human GPR120 (hGPR120) [3] = biological target: T2, human GPR120 (hGPR120) (Homo sapiens, UniProt Q5NUL3); assay: Determination of intracellular Ca2+ concentration (FLIPR), cell line TXGPR120; settings: for selectivity between GPR40 and GPR120 (in words), from Tables 3 and 4: GPR40 versus GPR120, Ca2+ and ERK results; for agonistic activity for hGPR120 (in words): cells in which GPR120 has been transgenically expressed; for [Ca^2+]/GPR120 10 μM (ratio vs. LA): relative fluorescence intensity vs LA at 10 μM, TXGPR120 cells
T2 construct: expressed in transfected cells; doxycycline-inducible expression vector
T2 sequence (Q5NUL3 1-361): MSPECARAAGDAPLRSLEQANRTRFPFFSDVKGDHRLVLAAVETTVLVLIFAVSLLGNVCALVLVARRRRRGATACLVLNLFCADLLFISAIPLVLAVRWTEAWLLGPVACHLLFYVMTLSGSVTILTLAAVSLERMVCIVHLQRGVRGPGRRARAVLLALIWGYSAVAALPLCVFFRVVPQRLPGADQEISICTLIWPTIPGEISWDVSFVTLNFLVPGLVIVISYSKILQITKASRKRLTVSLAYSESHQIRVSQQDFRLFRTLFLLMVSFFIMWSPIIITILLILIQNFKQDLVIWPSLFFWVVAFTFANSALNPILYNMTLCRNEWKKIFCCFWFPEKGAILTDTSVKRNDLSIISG
Protocol: as §1, §2, §3, §4, §5, §6, §7

human GPR120 (hGPR120) [4] = biological target: T2, human GPR120 (hGPR120); assay: Determination of intracellular Ca2+ concentration (FLIPR), cell line GPR120/Flp-in; settings: for [Ca^2+]/GPR120/Flp-In 10 μM (ratio vs. LA): relative fluorescence intensity vs LA at 10 μM
Protocol: as §1, §2, §3, §4, §5, §6, §7

[5] = GPR120/Flp-in cells, maximum fluorescence intensity vs ligand concentration, read-out: [Ca^2+]/GPR120/Flp-In pEC50 (converted)
[6] = TXGPR40 cells, maximum fluorescence intensity vs ligand concentration, read-out: [Ca^2+]/GPR40 pEC50 (converted)

T1 sequence (O14842 whole entry): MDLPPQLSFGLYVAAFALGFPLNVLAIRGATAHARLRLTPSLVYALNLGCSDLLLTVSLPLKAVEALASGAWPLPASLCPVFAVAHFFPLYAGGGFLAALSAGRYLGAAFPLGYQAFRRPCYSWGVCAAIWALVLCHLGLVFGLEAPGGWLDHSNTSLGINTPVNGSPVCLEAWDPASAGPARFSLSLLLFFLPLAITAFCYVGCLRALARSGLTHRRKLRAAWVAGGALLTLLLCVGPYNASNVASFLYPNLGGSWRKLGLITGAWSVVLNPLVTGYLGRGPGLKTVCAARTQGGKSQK

Row | ERK/GPR40 10 μM (human GPR40 (hGPR40) [1]) | agonistic activity for GPR40 (in words) (human GPR40 (hGPR40) [2]) | [Ca^2+]/GPR40 10 μM (ratio vs. LA) (human GPR40 (hGPR40) [2]; TXGPR40 cells) | selectivity between GPR40 and GPR120 (in words), from Tables 3 and 4 (human GPR120 (hGPR120) [3]) | agonistic activity for hGPR120 (in words) (human GPR120 (hGPR120) [3]) | [Ca^2+]/GPR120 10 μM (ratio vs. LA) (human GPR120 (hGPR120) [3]) | EC50 (human GPR120 (hGPR120) [4]; [5]) | [Ca^2+]/GPR120/Flp-In 10 μM (ratio vs. LA) (human GPR120 (hGPR120) [4]; GPR120/Flp-in cells) | EC50 (human GPR40 (hGPR40) [2]; [6]) | EC50 (human GPR40 (hGPR40) [2]) | EC50 (human GPR120 (hGPR120) [4]) | SMILES
1 | ++ (++ denotes 50 to 100% of LA) | showed a specific reactivity | 1.17 | selective agonists for GPR40 | exhibit a similar effect | 0.00 | 14.8 µM | 0.43 | – | – | – | O=C(O)CCc1ccc(NCc2cccc3ncccc23)cc1 [NCG14]
2 | ++ (++ denotes 50 to 100% of LA) | showed a specific reactivity | 1.34 | selective agonists for GPR40 | exhibit a similar effect | 0.00 | 5.89 µM | 0.59 | 3.39 µM | – | – | c1ccc(Oc2cccc(CNc3ccc(CCc4nnn[nH]4)cc3)c2)cc1 [NCG17]
3 | ++ (++ denotes 50 to 100% of LA) | showed a specific reactivity | 1.29 | selective agonists for GPR40 | exhibit a similar effect | 0.04 | 17 µM | 0.33 | 2.88 µM | – | – | CS(=O)(=O)NC(=O)CCc1ccc(NCc2cccc(Oc3ccccc3)c2)cc1 [NCG19]
4 | – | – | – | – | – | – | – | – | – | 27.5 µM | 12.6 µM | CCCCN(CCOc1ccc(CCCC(=O)O)cc1)c1ccccn1 [NCG20, 4-{4-[2-(2-butylpyridinylamino)ethoxy]phenyl}butanoic acid]
